{"source": "paper PMC9227994", "about": "“Evaluation of the Intestinal Permeability of Rosmarinic Acid from Thunbergia laurifolia Leaf Water Extract in a Caco-2 Cell Model” (Molecules, 2022)", "key": {"[1]": {"tested_on": "Caco-2 cells", "assay": "Cytotoxicity test, MTT assay", "type": "cell-based, human", "conditions": "concentrations below 500 µg/mL, 24 h", "procedure": "(§1) Cell viability of TL extracts and RA on Caco-2 cells was determined using MTT following modified assay. Caco-2 cells were seeded in 96-well plates at a density of 2 × 10^4 cells/well and cultured at 37 °C and 5% CO2 for 24 h. TL extracts and RA were dissolved in 50% DMSO and diluted with complete DMEM medium containing 0.1% DMSO in the culture medium. The tested compounds were diluted with medium at a concentration range of 1–1000 µg/mL for 24 h exposure experiment. After removal of the medium, the cells were washed with PBS and incubated with 50 µL of 0.5% MTT solution for 2 h at 37 °C and 5% CO2. A total of 50 μL of DMSO was put into each well to dissolve the formazan crystals. The absorbance was detected using a microplate reader at 590 nm. The percentage of cell viability was calculated according to the following Equation (1):(1) % Cell viability=A (sample)−A (blank)/A (control)−A (blank)×100 where A (sample) is absorbance value of sample; A (blank) is absorbance value of blank, and A (negative control) is absorbance value of control (cells). The experiment was performed in three replicates, and the concentration with a viability of more than 90% was chosen for evaluation in monolayer transport experiments as nontoxic to cells."}, "[2]": {"assay": "Cytotoxicity test, MTT assay", "type": "cell-based, human", "conditions": "human, Caco-2 cells, 1000 µg/mL, read-out: cell viability", "procedure": "as §1"}, "[3]": {"assay": "Stability of RA in HBSS (pH 7.4) at 37 °C for 2 h", "type": "physicochemical", "conditions": "HBSS pH 7.4, 37 °C, TL extract 250 µg/mL equivalent to pure RA 3.267 µg/mL", "procedure": "The stability of RA in the TL extract of 250 µg/mL, which was equivalent to pure RA of 3.267 µg/mL in HBSS solution was determined. The TL extracts and RA were dissolved in HBSS solution (pH 7.4) and incubated at 37 °C for 2 h according to the same conditions as in the transport experiment. The contents of the RA as in TL extract and pure compound were measured for stability tests using HPLC. Their RA remains before and after incubation were calculated and expressed as a percentage of RA."}, "[4]": {"tested_on": "Caco-2 cells", "design": "method as in PMID 15784988", "conditions": "cited from earlier work"}, "[5]": {"tested_on": "Caco-2 cell monolayers", "assay": "Transepithelial transport (permeability) across Caco-2 cell monolayers, HPLC-PDA, with or without β-glucuronidase/sulfatase deconjugation", "type": "in vitro ADME, human", "conditions": "for Papp (A-B) relative to B-A direction: after deconjugation; for ER (after Deconjugation): Papp (B-A)/Papp (A-B)", "procedure": "(§2) Caco-2 cells (ATCC no. HTB-37) were obtained from the American Type Culture Collection (Rockville, MD, USA) and cultured in DMEM containing […] sodium pyruvate, 20% fetal bovine serum, and 10,000 U/mL penicillin and 10,000 ug/mL streptomycin. Cell culture was maintained at 37 °C in a humidified atmosphere of 5% CO2. On achieving 80–90% confluence, Caco-2 cells were harvested using 0.25% trypsin–EDTA solution and mixed with complete DMEM medium. All cells were used for transport experiments between passages 30 and 40. The integrity of the Caco-2 cell monolayer in the transwell plates was evaluated by measuring transepithelial electrical resistance (TEER) across the monolayers using Millicell-ERS VoltOhm Meter (Millipore, Temecula, CA, USA). […] A (cm^2) is the area of the insert, 1.12 cm^2. […] The culture medium in inserts and plates was changed every 2–3 days for both A and B sides. All cells were used for transport experiments on days 19–21 postseeding. Before starting the transport experiment, the inserts were washed twice and equilibrated with transport buffer (HBSS containing […] HEPES, pH 7.4) for 30 min. Sample solutions of TL extract and RA were prepared and diluted in HBSS to the desired final concentrations. For the transport study of TL extract and RA across Caco-2 cell, sample solutions were added on donor chamber, 400 µL on A side or 1200 µL on B side. The equal volumes of transport buffer were replaced in the receiving chambers. The RA transport in samples was assessed either in A-B or B-A direction across Caco-2 cell monolayers. The plates were incubated at 37 °C for 120 min with gentle shaking at 100 rpm. The solutions of 200 µL on A side and 600 µL on B side were collected at the selected times of 30, 60, 90, and 120 min and immediately replaced with an equal volume of transport buffer to maintain the total volume in receiving chamber. Samples were stored at −80°C until analysis. The amount of transported RA in samples and reference compound was calculated using HPLC system according to the standard curve. β-glucuronidase/sulfatase (Type H-2 from Helix pomatia, 85 units/L of glucuronidase, and 7.5 units/L of sulfatase, Sigma-Aldrich Co., St. Louis, MO, USA) was added to collected samples, which were obtained from B-A solutions at 30, 60, 90, and 120 min, in a ratio of 1:20 and incubated at 37 °C for 4 h to release the parent compounds. These samples from both sides were then injected directly and analyzed for RA by HPLC. The relationship of Q (cumulative permeated amount; μg) versus time, was calculated with the following Equation (3):(3) Q=CnV+∑i=1n−1CiS where Cn is concentration of RA determined at nth sampling interval; V is volume of individual side, ∑i=1n−1Ci is sum of concentration of RA determined at sampling intervals 1 through n − 1, and S is volume of sampling aliquot The Papp (unit: cm/s) was determined and calculated from the amount of compound permeated per time by the following Equation (4):(4) Papp=(dQ/dt/C0×A) where dQ/dt is the steady-state flux of test compound across the cell monolayer in the receiver chamber (µg/min); C0 is the initial concentration in the donor (A or B side) chamber (µg/mL), and A is the surface area of the cell monolayer (cm^2). The membrane area (cm^2) of the insert is 1.12 cm^2. The ER was determined by calculating the ratio of Papp (B-A) versus Papp (A-B) as the following Equation (5):(5) ER=Papp (B-A)/Papp (A-B) where Papp (B-A) is the apparent permeability coefficient value in B-A direction, and Papp (A-B) is the permeability coefficient value in A-B direction. Basolateral recovery (%) was calculated as the amount of test compound transported through the Caco-2 cell monolayer to the B side and remaining on the A side at the end of the experiment divided by the initial amount on the A side."}, "[6]": {"assay": "Transepithelial transport (permeability) across Caco-2 cell monolayers, HPLC-PDA, with or without β-glucuronidase/sulfatase deconjugation", "type": "in vitro ADME, human", "conditions": "human, after β-glucuronidase/sulfatase", "procedure": "as §2"}, "[7]": {"conditions": "cited from earlier work"}, "[8]": {"design": "method as in doi:10.1039/C6RA28237G", "conditions": "rats, cited from earlier work"}, "[9]": {"conditions": "pure RA 3.267 µg/mL, after β-glucuronidase/sulfatase, listed as RA in pure RA"}}, "note": "“Also recorded” adds a separate entry of the source. Read-outs that look alike come from different tables or passages of the source."}
{"smiles": "O=C(/C=C/c1ccc(O)c(O)c1)O[C@H](Cc1ccc(O)c(O)c1)C(=O)O", "note": "[RA, Rosmarinic acid]", "values": [{"measurement": "Cytotoxicity to Caco-2 cells", "setting": "[1]", "value": "nontoxic"}, {"measurement": "viability at 24 h, 1000 µg/mL", "setting": "[2]", "value": 85, "unit": "%"}, {"measurement": "RA stability in HBSS", "setting": "[3]", "value": 91, "unit": "%"}, {"measurement": "RA absorbed in Caco-2 cells", "setting": "[4]", "value": "0.03–0.06%"}, {"measurement": "efflux ratio (ER), overall", "setting": "[5]; all concentrations, below 2 taken as no active efflux", "value": "less than 2"}, {"measurement": "Papp (A-B) relative to B-A direction", "setting": "[5]; pure RA 3.267 µg/mL", "value": 2.02, "unit": "fold"}, {"measurement": "ER (after Deconjugation)", "setting": "[5]; pure RA 3.267 µg/mL", "value": 0.5}, {"measurement": "Papp A-B Direction (after Deconjugation)", "setting": "[5]; [9]", "value": "41.2 ± 2.3 × 10^−6 cm/s"}, {"measurement": "Papp B-A Direction (after Deconjugation)", "setting": "[5]; [9]", "value": "20.4 ± 5.2 × 10^−6 cm/s"}, {"measurement": "Papp (A-B) relative to B-A direction", "setting": "[5]; pure RA 6.808 µg/mL", "value": 3.67, "unit": "fold"}, {"measurement": "ER (after Deconjugation)", "setting": "[5]; pure RA 6.808 µg/mL", "value": 0.3}, {"measurement": "Papp A-B Direction (after Deconjugation)", "setting": "[5]; pure RA 6.808 µg/mL, after β-glucuronidase/sulfatase, listed as RA in pure RA", "value": "22.9 ± 1.0 × 10^−6 cm/s"}, {"measurement": "Papp values before deconjugation, A-B and B-A directions", "setting": "[5]; pure RA, both concentrations, both directions", "value": "could not be detected; also recorded: not detectable"}, {"measurement": "Papp A→B at 120 min, 3.267 µg/mL", "setting": "[6]; Caco-2, pH 7.4, pure RA 3.267 µg/mL, read-out: Papp A-B Direction (after Deconjugation)", "value": "41.2 ± 2.29", "unit": "×10⁻⁶ cm/s"}, {"measurement": "Papp B→A at 120 min, 3.267 µg/mL", "setting": "[6]; Caco-2, pH 7.4, pure RA 3.267 µg/mL, read-out: Papp B-A Direction (after Deconjugation)", "value": "20.4 ± 5.16", "unit": "×10⁻⁶ cm/s"}, {"measurement": "Papp A→B at 120 min, 6.808 µg/mL", "setting": "[6]; Caco-2, pH 7.4, pure RA 6.808 µg/mL, read-out: Papp A-B Direction (after Deconjugation)", "value": "22.9 ± 0.97", "unit": "×10⁻⁶ cm/s"}, {"measurement": "Papp B→A at 120 min, 6.808 µg/mL", "setting": "[6]; Caco-2, pH 7.4, pure RA 6.808 µg/mL, read-out: Papp B-A Direction (after Deconjugation)", "value": "6.2 ± 0.2", "unit": "×10⁻⁶ cm/s"}, {"measurement": "logarithm of octanol–water partition coefficient (logP)", "setting": "[7]", "value": 1.626}, {"measurement": "partition coefficient (log Kow)", "setting": "[7]", "value": 1.82}, {"measurement": "oral absolute BA", "setting": "[8]; single oral dose 12.5 mg/kg", "value": 1.69, "unit": "%"}, {"measurement": "oral absolute BA", "setting": "[8]; single oral dose 25 mg/kg", "value": 1.28, "unit": "%"}, {"measurement": "oral absolute BA", "setting": "[8]; single oral dose 50 mg/kg", "value": 0.91, "unit": "%"}]}
